Results published in patent publication US7994222B2, “Monitoring of the inhibition of fatty acid synthesis by iodo-nitrobenzamide compounds” (BiPar Sciences, Inc., priority 2006, dated 2011).
“Also recorded” adds a separate entry of the source.

Key:
[1] = test system: tumor tissue; conditions: in vivo; cited from earlier work
[2] = cited from earlier work
[3] = test system: cancer cells; conditions: cancer cells with highly active fatty acid synthesis; cited from earlier work
[4] = test system: glycogen phosphorylase; conditions: in the presence or absence of glucose; human cells; cited from earlier work
[5] = test system: HeLa cells; experiment: Metabolic flux profiling with [1,2-13C2]-D-glucose tracer in cultured HeLa cells (GC/MS, MIDA); type: cell-based, human
Text: (§1) Goal: This study relates to analyzing the effect of the 3-nitro-4-iodobenzamide (compound of formula III) in vitro on cultured OVCAR-3 cells' and HeLa cells' metabolic fluxes using [1,2-^13C2]-D-glucose as the only source of glucose. The analysis includes correlating fluxes with cell growth-modifying effect, analyzing mechanism of anti-proliferative action and analyzing potential toxicity, selectivity, and efficacy. Target metabolites include glucose (culture medium and pellet glycogen), lactate (culture medium), ^13CO2 (culture medium), C:14 (myristate); C:16 (palmitate); C:18 (stearate); C:18-1 (oleate); C:20; C:22; C:24 (cell pellet), acetyl-CoA synthesis for fatty acids (cell pellet), and RNA ribose and DNA deoxyribose (cell pellet). Target fluxes include glucose uptake from culture media; lactate production from glucose (anaerobic glycolysis); ^13CO2 release from glucose via TCA cycle; glycogen synthesis; de novo fatty acid synthesis, elongation, desaturation and acetyl-CoA synthesis; and pentose cycle-RNA and DNA ribose synthesis via oxidative and non-oxidative reactions.
(§2) Materials & Methods: The tracer for this metabolic profiling study, stable isotope [1, 2-^13C2]-D-glucose, is purchased with >99% purity and 99% isotope enrichment for each position from Cambridge Isotope Laboratories, Inc. (Andover, Mass.).
(§3) Cells & cell culture: OVCAR3 and Hela cells are purchased from American Type Culture Collection (ATCC). The cells are cultured according to instructions obtained from ATCC. The cells are incubated at 37° C., 5% CO2 and 95% humidity and passed by using trypsin 0.25% (Gibco/BRL) no more than ten times after receipt from the ATCC and prior to use in this study.
(§4) Seventy-five percent confluent cultures cells are incubated in [1,2-^13C2]D-glucose-containing media (100 mg/dl total concentration=5 mM; 50% isotope enrichment—i.e. half unlabeled glucose, half labeled with the stable isotope ^13C tracer). […] Control cultures are treated with vehicle only. […] Glucose and lactate levels in the medium are measured using a Cobas Mira chemistry analyzer (Roche Diagnostics, Pleasanton, Calif., USA).
(§5) RNA ribose stable isotope studies: RNA ribose is isolated by acid hydrolysis of cellular RNA after Trizol purification of cell extracts. Total RNA amounts are assessed by spectrophotometric determination, in triplicate cultures. Ribose is derivatized to its aldonitrile acetate form using hydroxylamine in pyridine with acetic anhydride (Supelco, Bellefonte, Pa.) before mass spectral analyses. The ion cluster is monitored around the m/z 256 (carbons 1-5 of ribose) (chemical ionization, CI) and m/z 217 (carbons 3-5 of ribose) and m/z 242 (carbons 1-4 of ribose) (electron impact ionization, EI) to determine molar enrichment and the positional distribution of ^13C in ribose. By convention, the base mass of ^12C-compounds (with their derivatization agents) is given as m0 as measured by mass spectrometry (Boros L G, et al. 2002, Drug Discov. Today 7: 364-372).
(§6) Ribose molecules labeled with a single ^13C atom on the first carbon position (m1) recovered from RNA are used to gauge the ribose fraction produced by direct oxidation of glucose through the G6PD pathway. Ribose molecules labeled with ^13C on the first two carbon positions (m2) are used to measure the fraction produced by transketolase. Doubly labeled ribose molecules (m2 and m4) on the fourth and fifth carbon positions are used to measure molar fraction produced by triose phosphate isomerase and transketolase.
(§7) Lactate: Lactate from the cell culture media (0.2 ml) is extracted by ethylene chloride after acidification with HCL. Lactate is derivatized to its propylamine-heptafluorobutyrate ester form and the m/z 328 (carbons 1-3 of lactate) (chemical ionization, CI) is monitored for the detection of m1 (recycled lactate through the PC) and m2 (lactate produced by the Embden-Meyerhof-Pamas pathway) for the estimation of pentose cycle activity (Lee W N, et al. 1998, Am J Physiol 274: E843-E851). […]

[6] = test system: OVCAR-3 cells; experiment: Metabolic flux profiling with [1,2-13C2]-D-glucose tracer in cultured OVCAR-3 cells (GC/MS, MIDA); type: cell-based, human
Text: as §1, §2, §3, §4, §5, §6, §7

Q: What does the source list for C=C1C(=O)OC(CCCCCCCC)C1C(=O)O (stereo not shown) [C75]?
A: anti-tumor activity [1]: anti-tumor activity; fatty acid synthesis in tumor tissue [1]: inhibition

Q: Which in vivo activity [2] does the source give for C/C=C/C/C=C/CCC(=O)[C@H]1O[C@H]1C(N)=O [cerulenin] here?
A: limited in vivo activity

Q: And the “effect on cancer cells in vitro” value [3]?
A: cell death by means of apoptosis

Q: What does the source list for NC(=O)c1ccc(I)c([N+](=O)[O-])c1 [3-nitro-4-iodobenzamide]?
A: glycogen phosphorylase activity [4]: effectively controls; De novo synthesis of arachidic acid (C:20) ([5]; HeLa cells): spared from the inhibitory action; Oxidation of glucose into CO2 and ATP production in the TCA cycle ([5]; HeLa cells): not affected; acetyl-CoA contribution from glucose to long chain saturated fatty acids (C:20-C:24) ([5]; HeLa cells): dose-dependent increase; contribution to acetyl-CoA synthesis from glucose (C:14-C:18 fatty acids) ([5]; HeLa cells): low; substrate (glucose) uptake and activation (phosphorylation) ([5]; HeLa cells): no inhibitory effect; toxic effects on cell energy production, nucleic acid turnover and glycogen synthesis ([5]; HeLa cells): no toxic effects; medium and long chain fatty acid (C:14-C:18) de novo synthesis from glucose ([5]; HeLa cells, dose-responsive): decreased; cell membrane formation via limited de novo fatty acid synthesis ([5]; HeLa cells, mechanism of anti-proliferative action): decreases; Acetyl-CoA enrichment/formation from glucose for arachidic acid synthesis ([5]; HeLa cultures): high and increases; myristate (C:14) synthesis ([5]; Hela cells, 3 and 10 μM, 13C-labeled myristate at 72 hours, FIGS. 3A and B): inhibit; oleate (C:18-1) synthesis ([5]; Hela cells, 3 and 10 μM, 13C-labeled oleate at 72 hours, FIGS. 6A and B): inhibit; palmitate (C:16) synthesis ([5]; Hela cells, 3 and 10 μM, 13C-labeled palmitate at 72 hours, FIGS. 4A and B): inhibit; stearate (C:18) synthesis ([5]; Hela cells, 3 and 10 μM, 13C-labeled stearate at 72 hours, FIGS. 5A and B): inhibit; C:22 fatty acid synthesis ([5]; Hela cells, 3 and 10 μM, 72 hours, FIGS. 7A and B): inhibit; C:24 fatty acid synthesis ([5]; Hela cells, 3 and 10 μM, 72 hours, FIGS. 8A and B): inhibit; G6PDH and transketolase fluxes for DNA deoxyribose synthesis [6]: target enzymes; also recorded: inhibits; Glycogen synthesis and breakdown via the direct pathway [6]: inhibits; acetyl-CoA contribution from glucose to long chain saturated fatty acids (C:20-C:24) [6]: dose-dependent increase; toxic effects on cell energy production and nucleic acid RNA turnover [6]: no toxic effects; arachidic acid (C:20) synthesis ([6]; 3 and 10 μM, 72 hours, FIGS. 9A and B): inhibit; C:22 fatty acid synthesis ([6]; 3 and 10 μM, 72 hours, FIGS. 10A and B): inhibit; C:24 fatty acid synthesis ([6]; 3 and 10 μM, 72 hours, FIGS. 11A and B): inhibit; cell membrane formation via limited de novo long chain (C:20-C:24) fatty acid synthesis ([6]; mechanism of anti-proliferative action): decreases
